The record followed here is US20080118494A1, “Compositions For Detection Of Latent Hiv Reactivation And Methods Of Using The Same” (priority 2004, published 2008).

What all share (assay type): cell-based
Data set [1] relates to CD28 mediated HIV-1 reactivation in J89GFP cells. Briefly: Inhibition of activating anti-CD28 antibody (5D10) mediated HIV-1 reactivation in J89GFP cells. To be noted: J89GFP pretreated, then stimulated with 5D10; inhibitors 1 μM.
Description: The results are representative for five independent experiments. […] (C) J89GFP cells were pretreated for two hours with the specific ERK-inhibitor U0126 (control: U0124) or the specific p38-inhibitor SB202190 (control: SB202474) and then stimulated with activating anti-CD28 antibody 5D10 (1 μg/ml). Level of reactivation was measured as %-EGFP^+ cells using flow cytometry. Results represent the mean ±S.D. of three independent experiments.
Data set [2] relates to JEGFP cells. To be noted: 10,000 JEGFP cells/well, 384-well plate, increasing amounts of compound. The protocol:
JEGFP cells were seeded at a cell density of 1×10^4 cells/well into a 384-well plate and left untreated (Control) or treated with a low concentration of daunorubicin (0.0001 μg/ml). EGFP fluorescence as a measure of cell proliferation was then determined over a period of four days.
Influence of altered cell proliferation, cell viability and compound auto-fluorescence on EGFP fluorescence intensity. […] For example, compounds that have fluorochrome characteristics in the same excitation and emission range as EGFP can unspecifically increase the fluorescence signal and can cause false positive hits. On the other hand, too high concentrations of compounds that can reactivate latent HIV-1 infection, but within the chosen concentration range, either inhibit cell proliferation or decrease cell viability can result in false negative hits. […] Compounds that unspecifically increase EGFP expression in the latently infected LWI cells due to their fluorochrome characteristics also increase EGFP fluorescence in these cells, and can be detected as false positive hits. […] As JEGFP cells divide every 24 h and EGFP fluorescence intensity, when measured by plate based fluorometry, directly correlates with the cell density (FIG. 5), any influence of the tested compound on cell proliferation or cell viability can be immediately indicated by a drop in EGFP fluorescence. […]

Data set [3] concerns HIV-1 Tat / HIV-1 transcription in J89GFP cells. As to the kind of experiment: Suppression of TNF-α mediated HIV-1 reactivation in J89GFP cells by Tat inhibitor. To be noted: 10 μM. As to the method:
EGFP expression following TNF-α (1 ng/ml) mediated reactivation of latent HIV-1 infection in J89GFP cells in the presence or absence of Ro24-7429 (10 μM). Following stimulation, area (A+B) represents the total amount of virus produced over a two day period of time, whereas area B represents the amount of virus produced in the presence of Ro24-7429. Results represent the mean ±S.D. of three independent experiments.
The latently HIV-1 infected reporter T cell line J89GFP (Kutsch et al., 2002) was pretreated with the respective compound and then stimulated with various concentrations of TNF-α. As reactivation of latent HIV-1 is dependent on Tat activity, a sufficiently potent Tat inhibitor would suppress HIV-1 reactivation as indicated by […] in EGFP fluorescence. […] Levels of reactivation with respect to the percentage of HIV-1 positive cells, as well as the EGFP MCF intensity were identical. Whereas EGFP expression in TNF-α treated J89GFP in the absence of Ro24-7429 continued to increase until 96 h post stimulation, EGFP MCF peaked after 48 h, reaching 50% of the maximal EGFP MCF seen in the absence of Ro24-7429, and the slowly declined again (FIG. 14). The observed increase of EGFP fluorescence in TNF-α treated J89GFP cells can be described as an invasion kinetics of the first order, whereas the kinetics of EGFP expression following TNF-α mediated reactivation of HIV-1 in the presence of Ro24-7429 can be best described by a Bateman function, that describes onset and elimination of HIV-1 expression. Again, integration of the equation describing each curve allows for the determination of the relative amount of virus being produced in the critical 2 days time frame. Area (A+B) represents the amount of virus produced following reactivation, and Area B represents the amount of virus produced in the presence of Ro24-7429.

Data set [4] relates to latent HIV-1 infection in bulk population of latently infected JLTRG cells. As to the kind of experiment: Reactivation of latent HIV-1 in a bulk population of latently infected cells, flow cytometry. Conditions: optimal concentration of each compound, day 57 bulk population, 100,000 viable cells counted. As to the method: (A) Jurkat cells were infected with an EGFP expressing, replication incompetent reporter virus and the level of productive HIV-1 infection at each indicated time-point was directly assessed by flow cytometric analysis for EGFP expression (untreated; black circles). Levels of initial non-productive and later on latent HIV-1 infection was determined 24 hours following TNF-α stimulation (black squares). The results represent the mean ±S.D. of three independent experiments.
a) Quantification of the HIV-1 reactivating capabilities of test compounds. Following infection, HIV-1 integrates into the cellular genome. Integration is random, although HIV-1 preferentially integrates into euchromatin structures. Latency development can be thus influenced by a multitude of factors that alter gene expression or DNA structure, such as divergent gene expression patterns or the cell cycle stage at the time point of viral integration. Although the reporter cell lines are representative for the majority of latently infected cells and reliably identify most reactivating agents during the screening effort, they can not allow quantification of the capability of the individual compounds to reactivate HIV-1 infection from a diverse population of latently infected cells. To account for the influence that the side of integration of a latent virus can have on a compounds ability to reactivate the virus, a bulk population of latently infected cells (FIG. 7) was established. Following infection of JLTRG cells with HIV-1 NL43, a rapid increase of the level of infection can be observed. On day 3, an average 27% of the cells were productively infected. […] Until day 15, the percentage of productively infected cells rapidly declined to 3% of the overall cell population. At this time point, an additional 5% of the cells were non-productively infected. […] Since 1×10^6 cells were initially infected, and virus mediated inhibition of cell proliferation influences the relative level of infection over time can be excluded, it can be calculated that the latently infected cell population should consist of […] individual latently infected cells. This bulk population of cells allows quantification of the capability of the respective compounds to reactivate latent HIV-1. […] Each compound was titrated over a two-log concentration range to allow for optimal reactivation. The results for the optimal concentration of each compound are depicted in FIG. 7B. […] TNF-α (10 ng/ml) reactivated latent HIV-1 infection in 5% of the cells, whereas the DNA histone deacetylase inhibitors trichostatin A (TSA) and sodium butyrate (NaBu) reactivated latent HIV-1 infection in only 3% or 2.5% of the cells, respectively. To achieve an accurate estimate of the differences in the capability of different agents to reactivate HIV-1 infection it is important to run a sufficiently high number of cells. For this flow cytometry based analysis, 100,000 cells viable per sample were counted.
(In flow cytometry, cells or beads pass a laser one at a time.)

With `Oc1ccc(-c2nc(-c3ccncc3)c(-c3ccc(F)cc3)[nH]2)cc1` [SB202190], the “effect on HIV-1 reactivation by activating anti-CD28 antibody” value in data set [1] was “efficiently abrogated the activating effect of the antibody and blocked HIV-1 reactivation”.

Take `COc1cccc2c1C(=O)c1c(O)c3c(c(O)c1C2=O)C[C@@](O)(C(C)=O)C[C@@H]3O[C@H]1C[C@H](N)[C@H](O)[C@H](C)O1` [daunorubicin]: the “EGFP expression as measure of cell proliferation/viability” value in data set [2] is reported as “sharp drop in EGFP expression”.

`CNC1=Nc2ccc(Cl)cc2C(c2ccc[nH]2)=NC1` [Ro24-7429]: in data set [3] (TNF-α 1 ng/ml, first 24 h), the “influence on the level of HIV-1 expression during the first 24 h” value is given as “had no influence on the level of HIV-1 expression”. The “inhibition of virus production” value in data set [3] (TNF-α 1 ng/ml, initial 2 days period, from integration of EGFP curves) stood at 20%. Besides, in data set [3] (TNF-α 1 ng/ml, peak after 48 h), the “peak EGFP MCF relative to maximal EGFP MCF in the absence of inhibitor” value is on record as 50%. Further, the “suppression of reactivation of latent HIV-1” value in data set [3] (in the presence of 1 ng/ml TNF-α) is “not capable of suppressing reactivation of latent HIV-1 infection”.

Consider `CC(=O)O[C@@]12C[C@@H](C)[C@@]3(O)[C@@H](C=C(CO)C[C@]4(O)C(=O)C(C)=C[C@@H]34)[C@@H]1C2(C)C` [prostratin], for which the “cells in which latent HIV-1 infection was reactivated” value (“cells” for short) in data set [4] is listed as 6%.

In the case of `CC(/C=C/C(=O)NO)=C\[C@@H](C)C(=O)c1ccc(N(C)C)cc1` [TSA, trichostatin A], the “cells” value in data set [4] turned out to be 3%.

Take `N#CC(=C(/N)Sc1ccccc1N)/C(C#N)=C(\N)Sc1ccccc1N` [U0126]: the “effect on HIV-1 reactivation by activating anti-CD28 antibody” value in data set [1] was “efficiently abrogated the activating effect of the antibody and blocked HIV-1 reactivation”.

For the compound `CCCC(=O)[O-].[Na+]` [NaBu, sodium butyrate], the “cells” value in data set [4] is reported as 2.5%.
